Measurements: ChEMBL document CHEMBL3407340, “Synthesis, radiolabeling and evaluation of novel 4-oxo-quinoline derivatives as PET tracers for imaging cannabinoid type 2 receptor” (Eur J Med Chem, 2015)

How the values were obtained:
Bone [1] = assay: Biodistribution in Wistar rat bone at 5 to 10 MBq, iv after 15 mins by gamma counting analysis in presence of GW405883; type: ADME, organism-based, Bone element; conditions: in vivo, 0.25 h
[2] = Drug metabolism in Wistar rat plasma assessed as parent compound remaining at 115 to 163 MBq, iv after 10 mins; type: ADME, organism-based; conditions: read-out: Stability
Plasma [3] = assay: Stability in rat plasma after 40 mins; type: ADME, cell-free
Cortex [4] = assay: Drug uptake in LPS-treated mouse cortex at 10 to 18 MBq, iv by PET imaging analysis in presence of […]; type: ADME, organism-based; conditions: in vivo
Blood [5] = assay: Biodistribution in Wistar rat blood at 5 to 10 MBq, iv after 15 mins by gamma counting analysis; type: ADME, organism-based; conditions: in vivo, 0.25 h
Hippocampus [6] = assay: Drug uptake in LPS-treated mouse hippocampus at 10 to 18 MBq, iv by PET imaging analysis in presence of […]; type: ADME, organism-based; conditions: in vivo
Rattus norvegicus [7] = assay: Biodistribution in Wistar rat thyroid gland at 5 to 10 MBq, iv after 15 mins by gamma counting analysis; type: ADME, organism-based; conditions: in vivo, 0.25 h
Rattus norvegicus [8] = assay: Biodistribution in Wistar rat fat at 5 to 10 MBq, iv after 15 mins by gamma counting analysis; type: ADME, organism-based, Adipose tissue; conditions: in vivo, 0.25 h
Pancreas [9] = assay: Biodistribution in Wistar rat pancreas at 5 to 10 MBq, iv after 15 mins by gamma counting analysis; type: ADME, organism-based; conditions: in vivo, 0.25 h
Adrenal gland [10] = assay: Biodistribution in Wistar rat adrenal gland at 5 to 10 MBq, iv after 15 mins by gamma counting analysis; type: ADME, organism-based; conditions: in vivo, 0.25 h
Kidney [11] = assay: Biodistribution in Wistar rat kidneys at 5 to 10 MBq, iv after 15 mins by gamma counting analysis in presence of GW405883; type: ADME, organism-based; conditions: in vivo, 0.25 h
[12] = Partition coefficient, log D of the compound in n-octanol/phosphate buffer at pH 7.4 after 15 mins by shake flask method; type: physicochemical
Rattus norvegicus [13] = assay: Biodistribution in Wistar rat testis at 5 to 10 MBq, iv after 15 mins by gamma counting analysis in presence of GW405883; type: ADME, organism-based; conditions: in vivo, 0.25 h
Brain [14] = assay: Biodistribution in Wistar rat brain at 5 to 10 MBq, iv after 15 mins by gamma counting analysis; type: ADME, organism-based; conditions: in vivo, 0.25 h
[15] = Biodistribution in Wistar rat urine at 5 to 10 MBq, iv after 15 mins by gamma counting analysis in presence of GW405883; type: ADME, organism-based; conditions: in vivo, 0.25 h
Plasma [16] = assay: Stability in human plasma after 40 mins; type: ADME, cell-free
Blood [17] = assay: Biodistribution in Wistar rat blood at 5 to 10 MBq, iv after 15 mins by gamma counting analysis in presence of GW405883; type: ADME, organism-based; conditions: in vivo, 0.25 h
Adrenal gland [18] = assay: Biodistribution in Wistar rat adrenal gland at 5 to 10 MBq, iv after 15 mins by gamma counting analysis in presence of GW405883; type: ADME, organism-based; conditions: in vivo, 0.25 h
[19] = Drug metabolism in Wistar rat plasma assessed as parent compound remaining at 115 to 163 MBq, iv after 20 mins; type: ADME, organism-based; conditions: read-out: Stability
Spleen [20] = assay: Biodistribution in Wistar rat spleen at 5 to 10 MBq, iv after 15 mins by gamma counting analysis in presence of GW405883; type: ADME, organism-based; conditions: in vivo, 0.25 h
Cortex [21] = assay: Drug uptake in LPS-treated mouse cortex at 10 to 18 MBq, iv by PET imaging analysis; type: ADME, organism-based; conditions: in vivo
Lung [22] = assay: Biodistribution in Wistar rat lung at 5 to 10 MBq, iv after 15 mins by gamma counting analysis; type: ADME, organism-based; conditions: in vivo, 0.25 h
Brain [23] = assay: Drug uptake in LPS-treated mouse brain at 0.2 nM, iv after 5 days by PET imaging analysis relative to vehicle-treated control; type: ADME, organism-based; conditions: in vivo, 120 h, 0.0002 µM
Small intestine [24] = assay: Biodistribution in Wistar rat small intestine at 5 to 10 MBq, iv after 15 mins by gamma counting analysis in presence of GW405883; type: ADME, organism-based; conditions: in vivo, 0.25 h
Liver [25] = assay: Biodistribution in Wistar rat liver at 5 to 10 MBq, iv after 15 mins by gamma counting analysis in presence of GW405883; type: ADME, organism-based; conditions: in vivo, 0.25 h
[26] = Drug uptake in human lumbar spinal cord at 0.4 nM after 15 mins by autoradiography; type: ADME, tissue-based; conditions: 0.25 h, 0.0004 µM
Rattus norvegicus [27] = assay: Biodistribution in Wistar rat testis at 5 to 10 MBq, iv after 15 mins by gamma counting analysis; type: ADME, organism-based; conditions: in vivo, 0.25 h
[28] = Biodistribution in Wistar rat urine at 5 to 10 MBq, iv after 15 mins by gamma counting analysis; type: ADME, organism-based; conditions: in vivo, 0.25 h
Brain [29] = assay: Biodistribution in Wistar rat brain at 5 to 10 MBq, iv after 15 mins by gamma counting analysis in presence of GW405883; type: ADME, organism-based; conditions: in vivo, 0.25 h
Kidney [30] = assay: Biodistribution in Wistar rat kidneys at 5 to 10 MBq, iv after 15 mins by gamma counting analysis; type: ADME, organism-based; conditions: in vivo, 0.25 h
Heart [31] = assay: Biodistribution in Wistar rat heart at 5 to 10 MBq, iv after 15 mins by gamma counting analysis in presence of GW405883; type: ADME, organism-based; conditions: in vivo, 0.25 h
Muscle tissue [32] = assay: Biodistribution in Wistar rat muscle at 5 to 10 MBq, iv after 15 mins by gamma counting analysis; type: ADME, organism-based; conditions: in vivo, 0.25 h
Rattus norvegicus [33] = assay: Biodistribution in Wistar rat fat at 5 to 10 MBq, iv after 15 mins by gamma counting analysis in presence of GW405883; type: ADME, organism-based, Adipose tissue; conditions: in vivo, 0.25 h
Small intestine [34] = assay: Biodistribution in Wistar rat small intestine at 5 to 10 MBq, iv after 15 mins by gamma counting analysis; type: ADME, organism-based; conditions: in vivo, 0.25 h
[35] = Drug uptake in human cervical spinal cord at 0.4 nM after 15 mins by autoradiography; type: ADME, tissue-based; conditions: 0.25 h, 0.0004 µM
Brain [36] = assay: Drug uptake in LPS-treated mouse brain at 0.2 nM, iv after 5 days by PET imaging analysis in presence of GW405883 relative to control; type: ADME, organism-based; conditions: in vivo, 120 h, 0.0002 µM
Plasma [37] = assay: Stability in mouse plasma after 40 mins; type: ADME, cell-free
[38] = Drug metabolism in Wistar rat spleen assessed as parent compound remaining at 115 to 163 MBq, iv after 20 mins; type: ADME, organism-based; conditions: read-out: Stability
Brain [39] = assay: Drug uptake in LPS-treated mouse whole brain at 10 to 18 MBq, iv by PET imaging analysis in presence of […]; type: ADME, organism-based; conditions: in vivo
Cerebellum [40] = assay: Drug uptake in LPS-treated mouse cerebellum at 10 to 18 MBq, iv by PET imaging analysis; type: ADME, organism-based; conditions: in vivo
Heart [41] = assay: Biodistribution in Wistar rat heart at 5 to 10 MBq, iv after 15 mins by gamma counting analysis; type: ADME, organism-based; conditions: in vivo, 0.25 h
Lung [42] = assay: Biodistribution in Wistar rat lung at 5 to 10 MBq, iv after 15 mins by gamma counting analysis in presence of GW405883; type: ADME, organism-based; conditions: in vivo, 0.25 h
Bone [43] = assay: Biodistribution in Wistar rat bone at 5 to 10 MBq, iv after 15 mins by gamma counting analysis; type: ADME, organism-based, Bone element; conditions: in vivo, 0.25 h
Muscle tissue [44] = assay: Biodistribution in Wistar rat muscle at 5 to 10 MBq, iv after 15 mins by gamma counting analysis in presence of GW405883; type: ADME, organism-based; conditions: in vivo, 0.25 h
Zone of skin [45] = assay: Biodistribution in Wistar rat skin at 5 to 10 MBq, iv after 15 mins by gamma counting analysis in presence of GW405883; type: ADME, organism-based; conditions: in vivo, 0.25 h
Pancreas [46] = assay: Biodistribution in Wistar rat pancreas at 5 to 10 MBq, iv after 15 mins by gamma counting analysis in presence of GW405883; type: ADME, organism-based; conditions: in vivo, 0.25 h
Zone of skin [47] = assay: Biodistribution in Wistar rat skin at 5 to 10 MBq, iv after 15 mins by gamma counting analysis; type: ADME, organism-based; conditions: in vivo, 0.25 h
Liver [48] = assay: Biodistribution in Wistar rat liver at 5 to 10 MBq, iv after 15 mins by gamma counting analysis; type: ADME, organism-based; conditions: in vivo, 0.25 h
[49] = Drug metabolism in Wistar rat plasma assessed as parent compound remaining at 115 to 163 MBq, iv after 5 mins; type: ADME, organism-based; conditions: read-out: Stability
Hippocampus [50] = assay: Drug uptake in LPS-treated mouse hippocampus at 10 to 18 MBq, iv by PET imaging analysis; type: ADME, organism-based; conditions: in vivo
Brain [51] = assay: Drug uptake in LPS-treated mouse whole brain at 10 to 18 MBq, iv by PET imaging analysis; type: ADME, organism-based; conditions: in vivo
Cerebellum [52] = assay: Drug uptake in LPS-treated mouse cerebellum at 10 to 18 MBq, iv by PET imaging analysis in presence of GW405883; type: ADME, organism-based; conditions: in vivo
Spleen [53] = assay: Biodistribution in Wistar rat spleen at 5 to 10 MBq, iv after 15 mins by gamma counting analysis in presence of GW405883 relative to control; type: ADME, organism-based; conditions: in vivo, 0.25 h
Spleen [54] = assay: Biodistribution in Wistar rat spleen at 5 to 10 MBq, iv after 15 mins by gamma counting analysis; type: ADME, organism-based; conditions: in vivo, 0.25 h
Rattus norvegicus [55] = assay: Biodistribution in Wistar rat thyroid gland at 5 to 10 MBq, iv after 15 mins by gamma counting analysis in presence of GW405883; type: ADME, organism-based; conditions: in vivo, 0.25 h

CCOCCn1cc(C(=O)NC23CC4CC(CC(C4)C2)C3)c(=O)c2cccc(O[11CH3])c21
Drug uptake (Bone [1]): 0.039 % ID/g
remaining at 10 min [2]: 55%
Stability (Plasma [3]): Stable
Drug uptake (Cortex [4]): Not Active
Drug uptake (Blood [5]): 0.044 % ID/g
Drug uptake (Hippocampus [6]): Not Active
Drug uptake (Rattus norvegicus [7]): 0.077 % ID/g
Drug uptake (Rattus norvegicus [8]): 0.05 % ID/g
Drug uptake (Pancreas [9]): 0.11 % ID/g
Drug uptake (Adrenal gland [10]): 0.216 % ID/g
Drug uptake (Kidney [11]): 0.134 % ID/g
logD at 0.25 h [12]: 2.78
Drug uptake (Rattus norvegicus [13]): 0.034 % ID/g
Drug uptake (Brain [14]): 0.025 % ID/g
Drug uptake [15]: 0.08 % ID/g
Stability (Plasma [16]): Stable
Drug uptake (Blood [17]): 0.03 % ID/g
Drug uptake (Adrenal gland [18]): 0.262 % ID/g
remaining at 20 min [19]: 47%
Drug uptake (Spleen [20]): 0.062 % ID/g
Drug uptake (Cortex [21]): Active
Drug uptake (Lung [22]): 0.088 % ID/g
Drug uptake (Brain [23]): Active
Drug uptake (Small intestine [24]): 0.425 % ID/g
Drug uptake (Liver [25]): 0.38 % ID/g
Drug uptake [26]: Active
Drug uptake (Rattus norvegicus [27]): 0.033 % ID/g
Drug uptake [28]: 0.06 % ID/g
Drug uptake (Brain [29]): 0.028 % ID/g
Drug uptake (Kidney [30]): 0.122 % ID/g
Drug uptake (Heart [31]): 0.091 % ID/g
Drug uptake (Muscle tissue [32]): 0.065 % ID/g
Drug uptake (Rattus norvegicus [33]): 0.053 % ID/g
Drug uptake (Small intestine [34]): 0.924 % ID/g
Drug uptake [35]: Active
Drug uptake (Brain [36]): Not Active
Stability (Plasma [37]): Stable
remaining at 20 min [38]: 81%
Drug uptake (Brain [39]): Not Active
Drug uptake (Cerebellum [40]): Active
Drug uptake (Heart [41]): 0.08 % ID/g
Drug uptake (Lung [42]): 0.075 % ID/g
Drug uptake (Bone [43]): 0.046 % ID/g
Drug uptake (Muscle tissue [44]): 0.071 % ID/g
Drug uptake (Zone of skin [45]): 0.057 % ID/g
Drug uptake (Pancreas [46]): 0.113 % ID/g
Drug uptake (Zone of skin [47]): 0.05 % ID/g
Drug uptake (Liver [48]): 0.505 % ID/g
remaining at 5 min [49]: 72%
Drug uptake (Hippocampus [50]): Active
Drug uptake (Brain [51]): Active
Drug uptake (Cerebellum [52]): Not Active
Drug uptake (Spleen [53]): 78%
Drug uptake (Spleen [54]): 0.284 % ID/g
Drug uptake (Rattus norvegicus [55]): 0.064 % ID/g
